The numbers were not newly measured in patent US20090192228A1 (ACTAVIS GROUP PTC EHF, priority 2008, published 2009), which cites them from elsewhere.

The conditions of this data set: compared with oxybutynin.

Structures are written as SMILES.

For the compound `CC(C)N(CCC(c1ccccc1)c1cc(CO)ccc1O)C(C)C` (stereo not shown), the “Side-effects relative to oxybutynin, particularly propensity to cause dry mouth” value is on record as “considerably fewer side-effects”.
